Data set [1] can be described thus: H+/Na+ transport assay of bead-derived peptides (one-point).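 Also: relative to parent gramicidin A activity set to 1.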 It counts as biochemical. Set-up: key: relative activity; mean of two control wells = 1.00. The following applies: bead-derived peptide solution, EYPC/EYPG LUVs. In a few lines:
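Miniaturized 96-well format. LUVs with entrapped pyranine (1.0 mM) were exposed to peptide for 30 min at RT. Intensities were expressed relative to full lysis by Triton X-100 and no treatment, with control-well mean = 1.00.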

Data set [2] concerns P388 mouse leukemia cells. The following applies: 92 h. An outline of the steps: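 P388 cells at 1 × 10^4 cells/mL (final) were exposed to library peptides (stocks diluted 250-fold in RPMI1640/10% FBS) for 92 h at 37 °C, 5% CO2. Viable cells were counted by WST-1/1-methoxy PMS (4 h), absorbance 415 nm, and expressed as cell viability (%).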
For data set [3], the system named is Streptococcus pyogenes SSI-9. Put plainly: Antibacterial activity assay of bead-derived peptides (three concentrations). It counts as cell-based. Set-up: key: +++: inhibition by the 640-fold diluted peptide solution; ++: inhibition by the 160-fold diluted solution; +: inhibition by the 40-fold diluted solution; -: no inhibition. Conditions: S. pyogenes, bead-derived peptide solution, three concentrations. In a few lines:
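Undiluted, 4-fold and 16-fold DMSO-diluted peptide stocks; S. pyogenes SSI-9, 2 × 10^5 CFU, cation-adjusted MHB (50 mg/L Ca2+, 25 mg/L Mg2+) + 5% laked horse blood; 37 °C, 18 h; readout = cell pellet visible or not.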

Where a SMILES comes first, the peptide text is derived from it. [ ]: non-standard residue; d: D form. The star is where a group is joined. NHCH2CH2OH = OCCN*; For = O=C*

Regarding `CNC(=O)C[C@@H](NC(=O)[C@H](Cc1c[nH]c2ccccc12)NC(=O)[C@H](NC(=O)[C@H](Cc1c[nH]c2ccccc12)NC(=O)[C@H](NC(=O)[C@H](Cc1c[nH]c2ccccc12)NC(=O)[C@@H](CC(C)C)NC(=O)[C@@H](NC(=O)[C@H](NC(=O)[C@H](C)NC(=O)[C@H](NC(=O)[C@H](C)NC(=O)CNC(=O)[C@@H](NC=O)C(C)C)C(C)C)C(C)C)C(C)C)C(C)C)C(C)C)C(=O)N[C@@H](Cc1c[nH]c2ccccc12)C(=O)NCCO` [compound 12691] (For-VGA[dV]A[dV]V[dL]W[dV]W[dV]W[dD](NHMe)W-NHCH2CH2OH), the “H+/Na+ transport activity normalized against the value of 1 (1.00)” value (“H+/Na+ transport activity normalized” below) in data set [1] is 1.11. Moreover, in data set [2], the cell viability/% is recorded as 100.0%. Moreover, the antibacterial activity entry in data set [3] is recorded as “-”.

Consider `CC(C)C[C@@H](NC(=O)[C@H](C)NC(=O)CNC(=O)[C@@H](NC=O)C(C)C)C(=O)N[C@@H](C)C(=O)N[C@H](CC(C)C)C(=O)N[C@H](C(=O)N[C@@H](C(=O)N[C@@H](Cc1c[nH]c2ccccc12)C(=O)N[C@@H](C(=O)N[C@@H](Cc1c[nH]c2ccccc12)C(=O)N[C@H](CC(C)C)C(=O)N[C@@H](Cc1c[nH]c2ccccc12)C(=O)N[C@H](CC(C)C)C(=O)N[C@@H](Cc1c[nH]c2ccccc12)C(=O)NCCO)[C@H](C)O)C(C)C)C(C)C` [compound 7067] (For-VGA[dL]A[dL]V[dV]W[dT]W[dL]W[dL]W-NHCH2CH2OH), for which the “H+/Na+ transport activity normalized” value in data set [1] is 1.02. This molecule displayed a cell viability/% in data set [2] of 100.0%. For the same molecule, the antibacterial activity entry in data set [3] is listed as “-”.

Regarding `CC(C)C[C@@H](NC(=O)[C@H](Cc1c[nH]c2ccccc12)NC(=O)[C@H](NC(=O)[C@H](Cc1c[nH]c2ccccc12)NC(=O)[C@H](NC(=O)[C@H](Cc1c[nH]c2ccccc12)NC(=O)[C@H](NC(=O)[C@@H](NC(=O)[C@H](NC(=O)[C@H](C)NC(=O)[C@H](NC(=O)[C@H](C)NC(=O)CNC(=O)[C@@H](NC=O)C(C)C)C(C)C)[C@H](C)O)C(C)C)C(C)C)C(C)C)C(C)C)C(=O)N[C@@H](Cc1c[nH]c2ccccc12)C(=O)NCCO` [compound 379] (For-VGA[dV]A[dT]V[dV]W[dV]W[dV]W[dL]W-NHCH2CH2OH), the “H+/Na+ transport activity normalized” value in data set [1] is recorded as 1.19. For the same molecule, in data set [2], the cell viability/% was determined as 100.0%. The antibacterial activity result in data set [3] was “-”.

Turning to `CNC(=O)C[C@@H](NC(=O)[C@@H](NC(=O)[C@@H](CC(C)C)NC(=O)[C@H](C)NC(=O)[C@@H](CC(C)C)NC(=O)[C@H](C)NC(=O)CNC(=O)[C@@H](NC=O)C(C)C)C(C)C)C(=O)N[C@@H](Cc1c[nH]c2ccccc12)C(=O)N[C@H](CC(C)C)C(=O)N[C@@H](Cc1c[nH]c2ccccc12)C(=O)N[C@H](CC(C)C)C(=O)N[C@@H](Cc1c[nH]c2ccccc12)C(=O)N[C@@H](C(=O)N[C@@H](Cc1c[nH]c2ccccc12)C(=O)NCCO)[C@H](C)O` [compound 2967] (For-VGA[dL]A[dL]V[dD](NHMe)W[dL]W[dL]W[dT]W-NHCH2CH2OH), in data set [1], the “H+/Na+ transport activity normalized” value amounted to 1.04. The cell viability/% in data set [2] is given as 100.0%. Further, the antibacterial activity entry in data set [3] is listed as “-”.

Take `CC(C)C[C@@H](NC(=O)[C@H](C)NC(=O)CNC(=O)[C@@H](NC=O)C(C)C)C(=O)N[C@@H](C)C(=O)N[C@@H](C(=O)N[C@H](C(=O)N[C@@H](C(=O)N[C@@H](Cc1c[nH]c2ccccc12)C(=O)N[C@H](CC(C)C)C(=O)N[C@@H](Cc1c[nH]c2ccccc12)C(=O)N[C@H](CC(C)C)C(=O)N[C@@H](Cc1c[nH]c2ccccc12)C(=O)N[C@H](CC(C)C)C(=O)N[C@@H](Cc1c[nH]c2ccccc12)C(=O)NCCO)[C@H](C)O)C(C)C)C(C)C` [compound 2172] (For-VGA[dL]A[dV]V[dT]W[dL]W[dL]W[dL]W-NHCH2CH2OH): the “H+/Na+ transport activity normalized” value in data set [1] came to 1.22. In addition, the cell viability/% in data set [2] worked out at 100.0%. Further, in data set [3], the antibacterial activity result was “+”.

On to `CC(C)C[C@@H](NC(=O)[C@H](Cc1c[nH]c2ccccc12)NC(=O)[C@H](NC(=O)[C@H](Cc1c[nH]c2ccccc12)NC(=O)[C@H](NC(=O)[C@@H](NC(=O)[C@H](NC(=O)[C@H](C)NC(=O)[C@H](NC(=O)[C@H](C)NC(=O)CNC(=O)[C@@H](NC=O)C(C)C)[C@H](C)O)C(C)C)C(C)C)C(C)C)C(C)C)C(=O)N[C@@H](Cc1c[nH]c2ccccc12)C(=O)N[C@@H](C(=O)N[C@@H](Cc1c[nH]c2ccccc12)C(=O)NCCO)C(C)C` [compound 5933] (For-VGA[dT]A[dV]V[dV]W[dV]W[dL]W[dV]W-NHCH2CH2OH), for which the “H+/Na+ transport activity normalized” value in data set [1] is listed as 1.05. This molecule also showed a cell viability/% in data set [2] of 73.0%. For the same molecule, the antibacterial activity entry in data set [3] was “-”.

On to `CC(C)C[C@@H](NC(=O)[C@H](C)NC(=O)[C@H](NC(=O)[C@H](C)NC(=O)CNC(=O)[C@@H](NC=O)C(C)C)C(C)C)C(=O)N[C@H](C(=O)N[C@@H](C(=O)N[C@@H](Cc1c[nH]c2ccccc12)C(=O)N[C@@H](C(=O)N[C@@H](Cc1c[nH]c2ccccc12)C(=O)N[C@H](CC(C)C)C(=O)N[C@@H](Cc1c[nH]c2ccccc12)C(=O)N[C@@H](C(=O)N[C@@H](Cc1c[nH]c2ccccc12)C(=O)NCCO)C(C)C)C(C)C)[C@H](C)O)C(C)C` [compound 13174] (For-VGA[dV]A[dL]V[dT]W[dV]W[dL]W[dV]W-NHCH2CH2OH), for which the “H+/Na+ transport activity normalized” value in data set [1] is given as 1.18. Also, in data set [2], the cell viability/% was 100.0%. The antibacterial activity result in data set [3] is recorded as “-”.

On to `CC(C)C[C@@H](NC(=O)[C@H](Cc1c[nH]c2ccccc12)NC(=O)[C@H](NC(=O)[C@@H](NC(=O)[C@H](NC(=O)[C@H](C)NC(=O)[C@H](NC(=O)[C@H](C)NC(=O)CNC(=O)[C@@H](NC=O)C(C)C)C(C)C)C(C)C)C(C)C)[C@H](C)O)C(=O)N[C@@H](Cc1c[nH]c2ccccc12)C(=O)N[C@@H](C(=O)N[C@@H](Cc1c[nH]c2ccccc12)C(=O)N[C@@H](C(=O)N[C@@H](Cc1c[nH]c2ccccc12)C(=O)NCCO)C(C)C)C(C)C` [compound 8596] (For-VGA[dV]A[dV]V[dT]W[dL]W[dV]W[dV]W-NHCH2CH2OH), for which, in data set [1], the “H+/Na+ transport activity normalized” value stood at 1.07. Also, the cell viability/% in data set [2] was determined as 56.2%. Moreover, in data set [3], the antibacterial activity entry is recorded as “-”.

Take `CC(C)C[C@@H](NC(=O)[C@H](C)NC(=O)CNC(=O)[C@@H](NC=O)C(C)C)C(=O)N[C@@H](C)C(=O)N[C@H](CC(C)C)C(=O)N[C@H](C(=O)N[C@@H](C(=O)N[C@@H](Cc1c[nH]c2ccccc12)C(=O)N[C@H](CC(C)C)C(=O)N[C@@H](Cc1c[nH]c2ccccc12)C(=O)N[C@@H](C(=O)N[C@@H](Cc1c[nH]c2ccccc12)C(=O)N[C@@H](C(=O)N[C@@H](Cc1c[nH]c2ccccc12)C(=O)NCCO)C(C)C)C(C)C)C(C)C)C(C)C` [compound 9607] (For-VGA[dL]A[dL]V[dV]W[dL]W[dV]W[dV]W-NHCH2CH2OH): the “H+/Na+ transport activity normalized” value in data set [1] turned out to be 1.03. The cell viability/% in data set [2] is recorded as 48.6%. In addition, in data set [3], the antibacterial activity result is listed as “+”.

Take `CC(C)C[C@@H](NC(=O)[C@H](C)NC(=O)CNC(=O)[C@@H](NC=O)C(C)C)C(=O)N[C@@H](C)C(=O)N[C@H](CC(C)C)C(=O)N[C@H](C(=O)N[C@@H](C(=O)N[C@@H](Cc1c[nH]c2ccccc12)C(=O)N[C@@H](C(=O)N[C@@H](Cc1c[nH]c2ccccc12)C(=O)N[C@@H](C(=O)N[C@@H](Cc1c[nH]c2ccccc12)C(=O)N[C@H](CC(C)C)C(=O)N[C@@H](Cc1c[nH]c2ccccc12)C(=O)NCCO)C(C)C)[C@H](C)O)C(C)C)C(C)C` [compound 6950] (For-VGA[dL]A[dL]V[dV]W[dT]W[dV]W[dL]W-NHCH2CH2OH): the “H+/Na+ transport activity normalized” value in data set [1] is given as 1.06. For the same molecule, the cell viability/% in data set [2] worked out at 100.0%. Also, the antibacterial activity entry in data set [3] is “-”.

Consider `CC(C)C[C@@H](NC(=O)[C@H](C)NC(=O)CNC(=O)[C@@H](NC=O)C(C)C)C(=O)N[C@@H](C)C(=O)N[C@H](CC(C)C)C(=O)N[C@H](C(=O)N[C@@H](C(=O)N[C@@H](Cc1c[nH]c2ccccc12)C(=O)N[C@@H](C(=O)N[C@@H](Cc1c[nH]c2ccccc12)C(=O)N[C@@H](C(=O)N[C@@H](Cc1c[nH]c2ccccc12)C(=O)N[C@H](CC(C)C)C(=O)N[C@@H](Cc1c[nH]c2ccccc12)C(=O)NCCO)C(C)C)[C@H](C)O)C(C)C)C(C)C` [compound 4031] (For-VGA[dL]A[dL]V[dV]W[dT]W[dV]W[dL]W-NHCH2CH2OH), for which the “H+/Na+ transport activity normalized” value in data set [1] is listed as 1.05. In addition, the cell viability/% in data set [2] was 92.4%. In addition, the antibacterial activity entry in data set [3] is “-”.

Regarding `CC(C)C[C@@H](NC(=O)[C@H](C)NC(=O)CNC(=O)[C@@H](NC=O)C(C)C)C(=O)N[C@@H](C)C(=O)N[C@H](CC(C)C)C(=O)N[C@H](C(=O)N[C@@H](C(=O)N[C@@H](Cc1c[nH]c2ccccc12)C(=O)N[C@@H](C(=O)N[C@@H](Cc1c[nH]c2ccccc12)C(=O)N[C@H](CC(C)C)C(=O)N[C@@H](Cc1c[nH]c2ccccc12)C(=O)N[C@@H](C(=O)N[C@@H](Cc1c[nH]c2ccccc12)C(=O)NCCO)C(C)C)C(C)C)C(C)C)C(C)C` [compound 4297] (For-VGA[dL]A[dL]V[dV]W[dV]W[dL]W[dV]W-NHCH2CH2OH), the “H+/Na+ transport activity normalized” value in data set [1] is listed as 1.29. Besides, the cell viability/% in data set [2] amounted to 2.3%. Further, the antibacterial activity result in data set [3] is listed as “+”.

Source of the values: article PMC7531004, “Discovery of gramicidin A analogues with altered activities by multidimensional screening of a one-bead-one-compound library” (Nature Communications, 2020).
